Data from patent publication US7625841B2, “Substituted thiene-3-ylsulphonylamino(thio)carbonyltriazolin(ethi)ones” (Bayer CropScience AG, priority 2001, dated 2009).

Legend:
[1] = system: rape; test: Post-emergence test/greenhouse; assay type: in vivo; details: greenhouse, application rate 15 gai/ha, rated after three weeks, 0%=no effect, 100%=total destruction
In short: (§1)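 Compound (1 part by weight) dissolved in 5 parts by weight acetone with 1 part by weight alkylaryl polyglycol ether, diluted with water, sprayed onto plants 5-15 cm tall at the desired rate in 1000 l water/ha. Damage rated as % versus untreated control after three weeks (0% none, 100% total destruction).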

[2] = system: Chenopodium; test: Post-emergence test/greenhouse; assay type: in vivo; details: greenhouse, application rate 15 gai/ha, rated after three weeks, 0%=no effect, 100%=total destruction
In short: as §1

[3] = system: Lolium; test: Post-emergence test/greenhouse; assay type: in vivo; details: greenhouse, application rate 15 gai/ha, rated after three weeks, 0%=no effect, 100%=total destruction
In short: as §1

[4] = system: maize; test: Post-emergence test/greenhouse; assay type: in vivo; details: greenhouse, application rate 15 gai/ha, rated after three weeks, 0%=no effect, 100%=total destruction
In short: as §1

[5] = system: Xanthium; test: Post-emergence test/greenhouse; assay type: in vivo; details: greenhouse, application rate 15 gai/ha, rated after three weeks, 0%=no effect, 100%=total destruction
In short: as §1

[6] = system: Alopecurus; test: Post-emergence test/greenhouse; assay type: in vivo; details: greenhouse, application rate 15 gai/ha, rated after three weeks, 0%=no effect, 100%=total destruction
In short: as §1

[7] = system: Echinochloa; test: Post-emergence test/greenhouse; assay type: in vivo; details: greenhouse, application rate 15 gai/ha, rated after three weeks, 0%=no effect, 100%=total destruction
In short: as §1

[8] = system: wheat; test: Post-emergence test/greenhouse; assay type: in vivo; details: greenhouse, application rate 15 gai/ha, rated after three weeks, 0%=no effect, 100%=total destruction
In short: as §1

[9] = system: Digitaria; test: Post-emergence test/greenhouse; assay type: in vivo; details: greenhouse, application rate 15 gai/ha, rated after three weeks, 0%=no effect, 100%=total destruction
In short: as §1

[10] = system: Viola; test: Post-emergence test/greenhouse; assay type: in vivo; details: greenhouse, application rate 15 gai/ha, rated after three weeks, 0%=no effect, 100%=total destruction
In short: as §1

[11] = system: Bromus; test: Post-emergence test/greenhouse; assay type: in vivo; details: greenhouse, application rate 15 gai/ha, rated after three weeks, 0%=no effect, 100%=total destruction
In short: as §1

[12] = system: Datura; test: Post-emergence test/greenhouse; assay type: in vivo; details: greenhouse, application rate 15 gai/ha, rated after three weeks, 0%=no effect, 100%=total destruction
In short: as §1

[13] = system: Avena fatua; test: Post-emergence test/greenhouse; assay type: in vivo; details: greenhouse, application rate 15 gai/ha, rated after three weeks, 0%=no effect, 100%=total destruction
In short: as §1

[14] = system: Polygonum; test: Post-emergence test/greenhouse; assay type: in vivo; details: greenhouse, application rate 15 gai/ha, rated after three weeks, 0%=no effect, 100%=total destruction
In short: as §1

[15] = system: Setaria; test: Post-emergence test/greenhouse; assay type: in vivo; details: greenhouse, application rate 15 gai/ha, rated after three weeks, 0%=no effect, 100%=total destruction
In short: as §1

[16] = system: Chenopodium; test: Pre-emergence test/greenhouse; assay type: in vivo; details: greenhouse, application rate 15 gai/ha, rated after three weeks, 0%=no effect, 100%=total destruction
In short: (§2)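 Compound was formulated in acetone with alkylaryl polyglycol ether emulsifier and diluted in water. Seeds were sown in normal soil and, after 24 hours, the soil was sprayed at 1000 litres of water per hectare. After three weeks, damage was rated in % versus untreated control (0% no effect, 100% total destruction).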

[17] = system: Stellaria; test: Pre-emergence test/greenhouse; assay type: in vivo; details: greenhouse, application rate 15 gai/ha, rated after three weeks, 0%=no effect, 100%=total destruction; for pest or weed control at 15 g/ha: Stellaria, 504 h, read-out: degree of damage to the plants, Stellaria
In short: as §2

[18] = system: Lolium; test: Pre-emergence test/greenhouse; assay type: in vivo; details: greenhouse, application rate 15 gai/ha, rated after three weeks, 0%=no effect, 100%=total destruction; for pest or weed control at 15 g/ha: Lolium, 504 h, read-out: degree of damage to the plants, Lolium
In short: as §2

[19] = system: Galium; test: Pre-emergence test/greenhouse; assay type: in vivo; details: greenhouse, application rate 15 gai/ha, rated after three weeks, 0%=no effect, 100%=total destruction
In short: as §2

[20] = system: soybeans; test: Pre-emergence test/greenhouse; assay type: in vivo; details: greenhouse, application rate 15 gai/ha, rated after three weeks, 0%=no effect, 100%=total destruction
In short: as §2

[21] = system: maize; test: Pre-emergence test/greenhouse; assay type: in vivo; details: Zea mays, 504 h, greenhouse, application rate 15 gai/ha, rated after three weeks, 0%=no effect, 100%=total destruction, read-out: degree of damage to the plants, maize
In short: as §2

[22] = system: Xanthium; test: Pre-emergence test/greenhouse; assay type: in vivo; details: Xanthium, 504 h, greenhouse, application rate 15 gai/ha, rated after three weeks, 0%=no effect, 100%=total destruction, read-out: degree of damage to the plants, Xanthium
In short: as §2

[23] = system: Alopecurus; test: Pre-emergence test/greenhouse; assay type: in vivo; details: greenhouse, application rate 15 gai/ha, rated after three weeks, 0%=no effect, 100%=total destruction
In short: as §2

[24] = system: Matricaria; test: Pre-emergence test/greenhouse; assay type: in vivo; details: Matricaria, 504 h, greenhouse, application rate 15 gai/ha, rated after three weeks, 0%=no effect, 100%=total destruction, read-out: degree of damage to the plants, Matricaria
In short: as §2

[25] = system: wheat; test: Pre-emergence test/greenhouse; assay type: in vivo; details: Triticum aestivum, 504 h, greenhouse, application rate 15 gai/ha, rated after three weeks, 0%=no effect, 100%=total destruction, read-out: degree of damage to the plants, wheat
In short: as §2

[26] = system: Digitaria; test: Pre-emergence test/greenhouse; assay type: in vivo; details: greenhouse, application rate 15 gai/ha, rated after three weeks, 0%=no effect, 100%=total destruction
In short: as §2

[27] = system: Bromus; test: Pre-emergence test/greenhouse; assay type: in vivo; details: greenhouse, application rate 15 gai/ha, rated after three weeks, 0%=no effect, 100%=total destruction
In short: as §2

[28] = system: Avena fatua; test: Pre-emergence test/greenhouse; assay type: in vivo; details: greenhouse, application rate 15 gai/ha, rated after three weeks, 0%=no effect, 100%=total destruction
In short: as §2

[29] = system: Solanum; test: Pre-emergence test/greenhouse; assay type: in vivo; details: greenhouse, application rate 15 gai/ha, rated after three weeks, 0%=no effect, 100%=total destruction
In short: as §2

[30] = system: Polygonum; test: Pre-emergence test/greenhouse; assay type: in vivo; details: greenhouse, application rate 15 gai/ha, rated after three weeks, 0%=no effect, 100%=total destruction
In short: as §2

[31] = system: Setaria; test: Pre-emergence test/greenhouse; assay type: in vivo; details: greenhouse, application rate 15 gai/ha, rated after three weeks, 0%=no effect, 100%=total destruction
In short: as §2

[32] = system: weeds; test: Post-emergence test, summary for weeds; assay type: in vivo
In short: as §1

[33] = system: crop plants, such as, for example, maize, soyabean and wheat; test: Pre-emergence test, summary for crop plants; assay type: in vivo
In short: as §2

[34] = system: crop plants such as, for example, maize, oilseed rape and wheat; test: Post-emergence test, summary for crop plants; assay type: in vivo
In short: as §1

[35] = system: weeds; test: Pre-emergence test, summary for weeds; assay type: in vivo
In short: as §2

[36] = system: Amaranthus; test: Pre-emergence test/greenhouse; assay type: in vivo; details: greenhouse, application rate 15 gai/ha, rated after three weeks, 0%=no effect, 100%=total destruction
In short: as §2

Row | Compound | degree of damage to the plants, rape [1] | degree of damage to the plants, Chenopodium [2] | degree of damage to the plants, Lolium [3] | degree of damage to the plants, maize [4] | degree of damage to the plants, Xanthium [5] | degree of damage to the plants, Alopecurus [6] | degree of damage to the plants, Echinochloa [7] | degree of damage to the plants, wheat [8] | degree of damage to the plants, Viola [10] | degree of damage to the plants, Datura [12] | degree of damage to the plants, Polygonum [14] | pest or weed control at 15 g/ha [17] | pest or weed control at 15 g/ha [18] | degree of damage to the plants, Galium [19] | plant injury at 15 g/ha [21] | pest or weed control at 15 g/ha [22] | pest or weed control at 15 g/ha [24] | plant injury at 15 g/ha [25] | degree of damage to the plants, Bromus [27] | degree of damage to the plants, Avena fatua [28] | other results
1 | CCCOc1nn(C(=O)NS(=O)(=O)c2c(C(=O)OC)csc2C)c(=O)n1C [(A), methyl 4-[[[(4,5-dihydro-4-methyl-5-oxo-3-n-propoxy-1H-1,2,4-triazol-1-yl)carbonyl]-amino]sulfonyl]-5-methyl-3-thiophenecarboxylate, reference compound] | 95% | 80% | 30% | 30% | 70% | 70% | 60% | 0% | 30% | 50% | 50% | 80% | 0% | 10% | 0% | 0% | 50% | 0% | 60% | 0% | degree of damage to the plants, Digitaria [9]: 10%; degree of damage to the plants, Bromus [11]: 50%; degree of damage to the plants, Avena fatua [13]: 30%; degree of damage to the plants, Setaria [15]: 30%; degree of damage to the plants, Chenopodium [16]: 50%; degree of damage to the plants, soybeans [20]: 0%; degree of damage to the plants, Alopecurus [23]: 60%; degree of damage to the plants, Digitaria [26]: 0%; degree of damage to the plants, Solanum [29]: 80%; degree of damage to the plants, Polygonum [30]: 0%; degree of damage to the plants, Setaria [31]: 0%
2 | CCOC(=O)c1csc(C)c1S(=O)(=O)NC(=O)n1nc(OC)n(C)c1=O [Example 1, ethyl 4-[[[(3-methoxy-4-methyl-5-oxo-1H-1,2,4-triazol-1-yl)carbonyl]amino]sulfonyl]-5-methyl-3-thiophenecarboxylate] |  |  | 90% | 0% | 95% |  | 90% | 0% | 95% | 95% | 95% | 100% | 90% |  | 0% | 95% | 100% | 0% | 95% |  | activity against weeds compared with the known compounds (A) and (B) [32]: considerably stronger activity against weeds; tolerance by crop plants [33]: tolerated well by crop plants; melting point: 176 °C; compatibility with crop plants compared with the known compounds (A) and (B) [34]: substantially better compatibility with crop plants; activity against weeds compared with the known compounds (A) to (G) [35]: considerably stronger activity against weeds; degree of damage to the plants, Amaranthus [36]: 100%; degree of damage to the plants, Solanum [29]: 100%
3 | CCCc1nn(C(=O)NS(=O)(=O)c2c(C(=O)OC)csc2C)c(=O)n1OC [Example 42] | 0% | 95% | 90% |  |  | 90% | 90% |  |  |  |  |  |  | 100% |  |  |  |  | 95% | 90% | activity against weeds compared with the known compounds (A) and (B) [32]: considerably stronger activity against weeds; tolerance by crop plants [33]: tolerated well by crop plants; compatibility with crop plants compared with the known compounds (A) and (B) [34]: substantially better compatibility with crop plants; activity against weeds compared with the known compounds (A) to (G) [35]: considerably stronger activity against weeds; degree of damage to the plants, Stellaria [17]: 100%; degree of damage to the plants, Lolium [18]: 95%; degree of damage to the plants, Amaranthus [36]: 100%; degree of damage to the plants, Setaria [31]: 95%
